Data taken from ChEMBL document CHEMBL5338827, “Evolution and Discovery of Matrine Derivatives as a New Class of Anti-Hepatic Fibrosis Agents Targeting Ewing Sarcoma Breakpoint Region 1 (EWSR1)” (J Med Chem, 2023).
Active and inactive are the calls of the source. The rule behind the calls is not given here.

How the values were obtained:
LX-2 [1] = assay: Anti-fibrosis effect in human LX2 cells assessed as reduction in TGFbeta1-induced COL1A1 mRNA expression at 10 to 20 uM measured for 24 hrs; assay type: functional, cell-based; conditions: dose 10-20 µM
Mus musculus [2] = assay: Anti-hepatic fibrosis activity in MDR2 knockout liver injury mouse model assessed as reduction in bile duct hyperplasia at 100 mg/kg, po administered once a day for 4 weeks by H and E staining analysis; assay type: functional, organism-based
Rattus norvegicus [3] = assay: Anti-hepatic fibrosis activity in bile duct ligation rat model assessed as reduction in CoL1A1 mRNA expression at 100 mg/kg, po administered for 14 days by qRT-PCR analysis; assay type: functional, organism-based; conditions: time 14.0 day
Rattus norvegicus [4] = assay: Anti-hepatic fibrosis activity in bile duct ligation rat model assessed as reduction in bile duct proliferation at 100 mg/kg, po administered for 14 days; assay type: functional, organism-based; conditions: time 14.0 day
Mus musculus [5] = assay: Anti-hepatic fibrosis activity in MDR2 knockout liver injury mouse model assessed as reduction in ALP level at 100 mg/kg, po administered once a day for 4 weeks (reference value: 386.80+/-179.56 U/L); assay type: functional
Rattus norvegicus [6] = assay: Anti-hepatic fibrosis activity in bile duct ligation rat model assessed as reduction in ITGAV protein expression at 100 mg/kg, po administered for 14 days by Western blot analysis; assay type: functional, organism-based; conditions: time 14.0 day
LX-2 [7] = assay: Anti-hepatic fibrosis activity in human LX2 cells assessed as inhibition of TGF-beta1 induced CTGF mRNA expression at 20 uM incubated for 24 hrs by qRT-PCR analysis; assay type: functional, cell-based
LX-2 [8] = assay: Downregulation of EWSR1 mRNA level in human LX2 cells; assay type: functional, cell-based
HSC-T6 = assay: Anti-fibrosis effect in HSC-T6 cells assessed as reduction in TGFbeta1-induced integrin subunit alpha-V protein expression measured for 24 hrs; assay type: functional, cell-based; conditions: Rattus norvegicus, dose 2.5-20 µM
Mus musculus [9] = assay: Anti-hepatic fibrosis activity in MDR2 knockout liver injury mouse model assessed as reduction in COL1A1 mRNA expression at 100 mg/kg, po administered once a day for 4 weeks by qRT-PCR analysis; assay type: functional, organism-based
Rattus norvegicus [10] = assay: Anti-hepatic fibrosis activity in bile duct ligation rat model assessed as reduction in parenchyma necrosis at 100 mg/kg, po administered for 14 days by hematoxylin and eosin staining based analysis; assay type: functional, organism-based; conditions: time 14.0 day
[11] = biological target: T1, Secreted frizzled-related protein 1 (Homo sapiens) (UniProt Q8N474); assay: Binding affinity to SFRP1 (unknown origin) in human LX2 cells by streptavidin bead based pull-down assay; assay type: cell-based
T1 sequence (whole entry): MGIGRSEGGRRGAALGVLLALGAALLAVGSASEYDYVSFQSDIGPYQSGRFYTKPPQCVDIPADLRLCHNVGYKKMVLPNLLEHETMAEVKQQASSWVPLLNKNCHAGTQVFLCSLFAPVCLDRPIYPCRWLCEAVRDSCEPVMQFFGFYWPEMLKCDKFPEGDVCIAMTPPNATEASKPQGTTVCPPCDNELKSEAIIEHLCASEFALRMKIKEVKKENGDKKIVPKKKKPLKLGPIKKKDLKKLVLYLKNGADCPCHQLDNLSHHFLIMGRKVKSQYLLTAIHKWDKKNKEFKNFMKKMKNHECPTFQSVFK

Rattus norvegicus [12] = assay: Anti-hepatic fibrosis activity in bile duct ligation rat model assessed as reduction in ACTA2 mRNA expression at 100 mg/kg, po administered for 14 days by qRT-PCR analysis; assay type: functional, organism-based; conditions: time 14.0 day
Mus musculus [13] = assay: Anti-hepatic fibrosis activity in MDR2 knockout liver injury mouse model assessed as reduction in MMP2 mRNA expression at 100 mg/kg, po administered once a day for 4 weeks by qRT-PCR analysis; assay type: functional, organism-based
LX-2 [14] = assay: Anti-fibrosis effect in human LX2 cells assessed as reduction in TGFbeta1-induced alpha-SMA mRNA expression at 10 to 20 uM measured for 24 hrs; assay type: functional, cell-based; conditions: dose 10-20 µM
Mus musculus [15] = assay: Anti-hepatic fibrosis activity in MDR2 knockout liver injury mouse model assessed as reduction inflammatory infiltration at 100 mg/kg, po administered once a day for 4 weeks by H and E staining analysis; assay type: functional, organism-based
LX-2 [16] = assay: Anti-hepatic fibrosis activity in human LX2 cells assessed as inhibition of TGF-beta1 induced alpha-SMA mRNA expression at 20 uM incubated for 24 hrs by qRT-PCR analysis; assay type: functional, cell-based
Rattus norvegicus [17] = assay: Anti-hepatic fibrosis activity in bile duct ligation rat model assessed as reduction hydroxyproline level at 100 mg/kg, po administered for 14 days; assay type: functional, organism-based; conditions: time 14.0 day
Rattus norvegicus [18] = assay: Anti-hepatic fibrosis activity in bile duct ligation rat model assessed as reduction in CTGF protein expression at 100 mg/kg, po administered for 14 days by Western blot analysis; assay type: functional, organism-based; conditions: time 14.0 day
LX-2 [19] = assay: Anti-fibrosis effect in human LX2 cells assessed as reduction in TGFbeta1-induced alpha-SMA protein expression at 10 to 20 uM measured for 24 hrs; assay type: functional, cell-based; conditions: dose 10-20 µM
Rattus norvegicus [20] = assay: Anti-hepatic fibrosis activity in bile duct ligation rat model assessed as reduction inflammation score at 100 mg/kg, po administered for 14 days; assay type: functional, organism-based; conditions: time 14.0 day
Mus musculus [21] = assay: Anti-hepatic fibrosis activity in MDR2 knockout liver injury mouse model assessed as reduction in CTGF mRNA expression at 100 mg/kg, po administered once a day for 4 weeks by qRT-PCR analysis; assay type: functional, organism-based
[22] = biological target: Collagen alpha-1(I) chain (Homo sapiens, UniProt P02452); assay: Inhibition of COL1A1 (unknown origin) expressed in human LX2 cells at 80 uM measured for 24 hrs relative to control; assay type: cell-based
Chain of Collagen alpha-1(I) chain (P02452 whole entry): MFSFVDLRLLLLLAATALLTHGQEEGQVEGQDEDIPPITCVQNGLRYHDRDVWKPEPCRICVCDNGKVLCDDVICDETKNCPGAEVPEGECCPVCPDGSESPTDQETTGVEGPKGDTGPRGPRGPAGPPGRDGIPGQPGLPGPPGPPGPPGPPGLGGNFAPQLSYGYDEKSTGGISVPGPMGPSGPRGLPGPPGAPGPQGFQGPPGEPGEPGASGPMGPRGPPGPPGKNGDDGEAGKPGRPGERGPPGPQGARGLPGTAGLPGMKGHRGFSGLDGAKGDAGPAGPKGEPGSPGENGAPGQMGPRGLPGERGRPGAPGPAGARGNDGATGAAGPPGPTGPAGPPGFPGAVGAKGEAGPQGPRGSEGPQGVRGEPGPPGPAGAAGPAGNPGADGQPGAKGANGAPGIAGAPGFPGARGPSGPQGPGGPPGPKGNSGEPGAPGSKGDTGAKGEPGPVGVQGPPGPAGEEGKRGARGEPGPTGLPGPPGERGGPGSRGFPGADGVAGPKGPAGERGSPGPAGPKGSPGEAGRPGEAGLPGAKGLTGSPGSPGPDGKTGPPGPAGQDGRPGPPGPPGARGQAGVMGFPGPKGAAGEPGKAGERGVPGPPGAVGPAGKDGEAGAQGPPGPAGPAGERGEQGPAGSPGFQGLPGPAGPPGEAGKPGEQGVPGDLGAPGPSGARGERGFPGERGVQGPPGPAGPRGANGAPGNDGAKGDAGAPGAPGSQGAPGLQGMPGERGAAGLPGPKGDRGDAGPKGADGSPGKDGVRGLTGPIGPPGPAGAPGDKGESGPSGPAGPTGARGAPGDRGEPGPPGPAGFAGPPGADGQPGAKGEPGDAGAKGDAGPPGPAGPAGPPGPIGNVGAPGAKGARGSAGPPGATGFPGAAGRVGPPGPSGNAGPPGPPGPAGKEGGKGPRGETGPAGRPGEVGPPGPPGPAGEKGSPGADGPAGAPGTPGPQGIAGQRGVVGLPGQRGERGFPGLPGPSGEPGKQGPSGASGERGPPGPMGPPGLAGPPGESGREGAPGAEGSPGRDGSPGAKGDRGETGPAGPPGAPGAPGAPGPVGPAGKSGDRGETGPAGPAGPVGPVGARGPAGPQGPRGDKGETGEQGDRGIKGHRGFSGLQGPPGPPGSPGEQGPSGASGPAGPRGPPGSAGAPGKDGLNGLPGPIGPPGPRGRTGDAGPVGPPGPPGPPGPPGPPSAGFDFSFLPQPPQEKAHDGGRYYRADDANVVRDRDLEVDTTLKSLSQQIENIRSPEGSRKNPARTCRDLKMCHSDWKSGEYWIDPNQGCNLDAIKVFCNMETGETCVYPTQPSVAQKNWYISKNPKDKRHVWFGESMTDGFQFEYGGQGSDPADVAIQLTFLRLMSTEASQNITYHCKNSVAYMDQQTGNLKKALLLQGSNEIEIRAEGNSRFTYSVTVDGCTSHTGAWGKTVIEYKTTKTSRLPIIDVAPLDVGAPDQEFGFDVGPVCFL

For `CCCC[C@@H]1[C@H]2CCCN3CCC[C@@H](CN1C(=O)Nc1c(CC)cccc1CC)[C@@H]23`, the Activity (LX-2 [1]) was “Active”, the Activity (Mus musculus [2]) was “Active” and the Activity (Rattus norvegicus [3]) was “Active”. For the same compound, the Activity (Rattus norvegicus [4]) was “Active”, the Activity (Mus musculus [5]) was 278.8 U/L and the Activity (Rattus norvegicus [6]) was “Active”. For the same compound, the Activity (LX-2 [7]) was “Active”, the Activity (LX-2 [8]) was “inactive” and the Activity (HSC-T6) was “Dose-Dependent Effect”. The Activity (Mus musculus [9]) was “Active”, the Activity (Rattus norvegicus [10]) was “Active” and the Activity [11] was “inactive”. For the same compound, the Activity (Rattus norvegicus [12]) was “Active”, the Activity (Mus musculus [13]) was “Active” and the Activity (LX-2 [14]) was “Active”. The Activity (Mus musculus [15]) was “Active”, the Activity (LX-2 [16]) was “Active” and the Activity (Rattus norvegicus [17]) was “Active”. The Activity (Rattus norvegicus [18]) was “Active”, the Activity (LX-2 [19]) was “Active” and the Activity (Rattus norvegicus [20]) was “Active”. The Activity (Mus musculus [21]) was “Active” and the inhibition [22] was 99.8%.
